Test system: dSH-SY5Y cells
Experiment: Internalisation of dGAE-488 into cells by confocal microscopy
Format: cell-based, human
Conditions: soluble form, 5 μM dGAE-488, live confocal imaging t=0 h to 14 h
Description: Undifferentiated SH-SY5Y human neuroblastoma cells were grown in Dulbecco's Modified Eagle Medium/Nutrient Mixture F-12 (DMEM/F-12) supplemented with 10% Foetal Calf Serum (FCS), 1% Penicillin/Streptomycin (P/S) and 1% L-glutamine. For differentiation, SH-SY5Y cells were plated at a density of 50,000 cells per well in 24-well plates or 300,000 cells per well in 6-well plates. For immunofluorescence, cells were plated onto Menzel-Gläser coverslips (Thermo Scientific). For live-cell imaging, cells were plated on 35-mm dishes on a 1.5-mm coverslip (Mattek). On the first day of differentiation, media was replaced with low-serum culture media (DMEM/F-12 containing 1% FCS, 1% P/S and 1% L-glutamine) containing 10 μM all-trans retinoic acid (RA) (Sigma-Aldrich) and cells were incubated for 48 h. On day 3, this process was repeated with fresh RA and cells were incubated for a further 48 h. On day 5, the cells were washed once in serum-free culture media to remove traces of serum. […] Differentiated cells (dSH-SY5Y) were ready to use for experiments on day 7. […]
FIJI (https://fiji.sc) imaging processing package (J. Schindelin et al., Nat. Methods, vol. 9, no. 7, pp. 676-682, (2012)) was used for all image analysis. For quantification of fluorescence intensities, images were Z-projected to maximal intensity. […] Area-integrated intensity and mean grey value were measured as well as three selections from around the cell with no fluorescence (background). The corrected total cell fluorescence (CTCF) was then calculated using the equation: […]
For quantification of internalised dGAE-488, a focal plane from the middle of the cell that contained maximal DAPI fluorescence was selected and subjected to analysis.
The uptake of soluble and aggregated dGAE into dSH-SY5Y cells was investigated in order to examine whether aggregation state affects the efficiency of internalisation. The labelled dGAE-488 form was used to permit uptake to be visualised and measured having corrected for total cell fluorescence. […]

dGAE: recombinant truncated tau, 95 residues fragment of Tau (2N4R), Ile-297 to Glu-391, SEQ ID NO: 4
incubation time at which internalised protein is detected in cells: ≤ 2 h
